Results published in US20030186967A1, “Acylresorcinol derivatives are selective vitronectin receptor inhibitors” (American Home Products Corporation, priority 1998, published 2003).
Structures can show the parent of a compound that is named as a salt. Where two headings read alike, the source gives them in different places. Ends that are not written are not given here.

What was measured:
[1] = biological target: T1, Vitronectin receptor αVβ3 (Homo sapiens, UniProt P05106+P06756); experiment: Vitronectin Receptor αVβ3 Binding Assay; conditions: for IC50: read-out: VnR (IC50μM)
T1 construct: expressed in transfected cells; host or cells: 512P5 cells (plasma membrane preparation)

[2] = test system: thyro-parathyroidectomized (TPTX) rats; experiment: PTH-induced hypercalcemia of thyroparathyroidectomized male rats; format: in vivo, rat; conditions: 100 mg/kg; for inhibition in vivo at 100 mg/kg: Rattus norvegicus, sc
Procedure: Effects of test compounds on PTH-induced hypercalcemia of thyroparathyroidectomized male rats
Male thyro-parathyroidectomized (TPTX) rats (Charles River) were randomly assigned to groups of 7 rats/group. Following a baseline serum calcium determination an Alzet 1003D minipump (Alza Corporation, Palo Alto, Calif.) loaded with 0.3 mg/ml PTH (Bachem, Philadelphia, Pa.) was implanted subcutaneously in each rat. For evaluation of prophylactic effects of a test drug, another minipump with appropriate concentration of the test drug solution was implanted subcutaneously at a site away from PTH minipump. Alternatively, test drugs were administered by oral gavage as a solution or uniform suspension in an appropriate medium depending on the physical properties of the test compound. A group of 7 unimplanted TPTX rats was set aside as a normal control group. Twenty hours after minipump implantation blood was collected from each rat to confirm the presence of hypercalcemia (judged by elevation of serum calcium levels, 2 SD>normal non-implanted level). At various intervals between 0.5 and 24 hours after dosing (usually one to three time points), blood was collected from each rat and the serum evaluated for total calcium. Serum calcium levels were measured using the Nova 7+7 calcium auto analyzer spectrophotometrically using the Sigma test kit (#587A). Test results were determined by the difference in serum calcium between vehicle and treatment group following PTH administration, using a one-way analysis of variance with Dunnett's test or other multiple comparison methods.

αVβ3 integrin = biological target: T2, αVβ3 integrin (Homo sapiens, UniProt P05106+P06756); experiment: Osteopontin-αVβ3 Cell Attachment Assay; format: cell-based
T2 construct: αVβ3-expressing cell lines are maintained by standard tissue culture techniques; endogenous in cells; host or cells: αVβ3-expressing cell lines
Procedure: Osteopontin-αVβ3 Cell Attachment Assay The purpose of this assay is to measure the effect of various compounds on the RGD-dependent attachment of cells to osteopontin mediated by the αVβ3 integrin. […] Following the blocking period, wells are aspirated and washed once with D-PBS. Cell Suspension αVβ3-expressing cell lines are maintained by standard tissue culture techniques. […] The cells are pelleted by low-speed centrifugation and washed three times with 0.5 mg/mL trypsin inhibitor in D-PBS (Sigma). The final cell pellet is resuspended in cell suspension media at a concentration of 10^6 cells/mL. Attachment Assay Incubation: […] of diluted test compound is added to osteopontin-coated wells (in triplicate) followed by […] of cell suspension; background cell attachment is determined in uncoated wells. The plate is incubated at 25° C. in a humidified air atmosphere for 1.5 hours. Following the incubation period, the wells are gently aspirated and washed once with D-PBS. Cell Number Detection: The number of cells attached is determined by an MTT dye conversion assay (Promega) according to the manufacturer's instructions. Briefly, MTT dye is diluted in cell suspension media (15:85) and […] is added to each well. […] The assay plates are covered and incubated at 37° C. in a humidified air atmosphere overnight. […] Reference Compounds Various […]

osteoclasts = experiment: Osteoclast Pitting Assay; format: cell-based, rat
Procedure: The assay is conducted as described in Murrills and Dempster (1990). Briefly, 4×4×0.2 mm slices of devitalized bovine cortical bone are numbered, placed in the wells of 96-well culture plates and wetted with 100 ul of Medium 199 containing Hanks salts, 10 mM HEPES, pH 7.0 (Medium 199/Hanks). Bone cell suspensions containing osteoclasts are prepared by mincing the long bones of neonatal rats (Sprague-Dawley, 4-6 days old) in Medium 199/Hanks. 100 uL of the suspension is then plated onto each slice and incubated 30 minutes to allow osteoclasts to adhere. The slices are rinsed to remove non-adherent cells and incubated 24 h in Medium 199 containing Earle's salts, 10 mM HEPES and 0.7 g/L NaHCO3, which equilibrates at pH 6.9 in a 5% CO2 atmosphere. At this pH the adherent osteoclasts excavate an adequate number of resorption pits for assay purposes. Slices are fixed in 2.5% glutaraldehyde and osteoclasts counted following tartrate-resistant acid phosphatase staining. […] All cells are stripped from the slice by sonication on 0.25M NH4OH and the resorption pits formed by the osteoclasts during the experiment stained with toluidine blue. Resorption pits are quantified by manually counting.
The experiments are conducted according to a block design with osteoclasts from each animal exposed to each treatment. Three replicate slices are used per treatment per animal, such that a total of 96 slices are examined for an experiment involving four animals and eight treatments (including control). Several parameters are recorded on a “per slice” basis: number of pits, number of osteoclasts, number of pits per osteoclast, number of fibroblast-like bone cells. SAS or JMP statistical software is used for statistical analysis. […] IC50s are calculated for active compounds using dose-response curves.
Reference Compound: Rat calcitonin.
Osteoclasts are responsible for the bone loss that occurs in the onset of osteoporosis and anti-resorptive drugs directed against the osteoclast are a requirement for patients losing bone.

[3] = Osteoclast Pitting Assay, neonatal rat osteoclasts on bovine cortical bone slices, read-out: IC50 (μM) Bone Pitting

T2 sequence (P06756 31-889 limits assumed): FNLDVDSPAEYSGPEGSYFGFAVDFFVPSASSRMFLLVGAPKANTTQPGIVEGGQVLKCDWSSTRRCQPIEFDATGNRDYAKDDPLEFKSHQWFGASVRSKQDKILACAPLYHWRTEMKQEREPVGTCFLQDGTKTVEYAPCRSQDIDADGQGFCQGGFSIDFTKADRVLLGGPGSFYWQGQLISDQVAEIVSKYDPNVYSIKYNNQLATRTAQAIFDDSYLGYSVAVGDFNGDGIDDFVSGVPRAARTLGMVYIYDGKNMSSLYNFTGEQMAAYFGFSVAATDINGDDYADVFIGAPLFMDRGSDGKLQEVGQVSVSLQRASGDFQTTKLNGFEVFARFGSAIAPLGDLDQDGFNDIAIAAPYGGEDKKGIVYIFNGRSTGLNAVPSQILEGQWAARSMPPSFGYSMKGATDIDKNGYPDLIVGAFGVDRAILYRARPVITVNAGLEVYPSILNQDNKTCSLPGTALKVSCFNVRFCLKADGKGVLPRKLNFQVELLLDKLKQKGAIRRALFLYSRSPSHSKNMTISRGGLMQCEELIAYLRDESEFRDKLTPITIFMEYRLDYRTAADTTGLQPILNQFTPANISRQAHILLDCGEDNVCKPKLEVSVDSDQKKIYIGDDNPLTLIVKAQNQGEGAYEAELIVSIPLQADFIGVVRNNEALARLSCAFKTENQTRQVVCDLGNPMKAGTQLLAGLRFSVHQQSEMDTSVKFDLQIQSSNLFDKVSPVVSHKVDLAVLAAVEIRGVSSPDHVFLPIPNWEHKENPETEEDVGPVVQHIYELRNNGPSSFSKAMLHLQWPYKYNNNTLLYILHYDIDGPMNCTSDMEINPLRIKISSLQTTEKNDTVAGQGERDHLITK
T2 sequence (P06756 891-1048 partner limits assumed): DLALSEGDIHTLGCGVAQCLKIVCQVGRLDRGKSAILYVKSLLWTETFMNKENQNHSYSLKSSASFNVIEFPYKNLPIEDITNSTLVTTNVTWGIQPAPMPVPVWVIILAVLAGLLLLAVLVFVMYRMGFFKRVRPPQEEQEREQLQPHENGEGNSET
T2 sequence (P05106 27-788): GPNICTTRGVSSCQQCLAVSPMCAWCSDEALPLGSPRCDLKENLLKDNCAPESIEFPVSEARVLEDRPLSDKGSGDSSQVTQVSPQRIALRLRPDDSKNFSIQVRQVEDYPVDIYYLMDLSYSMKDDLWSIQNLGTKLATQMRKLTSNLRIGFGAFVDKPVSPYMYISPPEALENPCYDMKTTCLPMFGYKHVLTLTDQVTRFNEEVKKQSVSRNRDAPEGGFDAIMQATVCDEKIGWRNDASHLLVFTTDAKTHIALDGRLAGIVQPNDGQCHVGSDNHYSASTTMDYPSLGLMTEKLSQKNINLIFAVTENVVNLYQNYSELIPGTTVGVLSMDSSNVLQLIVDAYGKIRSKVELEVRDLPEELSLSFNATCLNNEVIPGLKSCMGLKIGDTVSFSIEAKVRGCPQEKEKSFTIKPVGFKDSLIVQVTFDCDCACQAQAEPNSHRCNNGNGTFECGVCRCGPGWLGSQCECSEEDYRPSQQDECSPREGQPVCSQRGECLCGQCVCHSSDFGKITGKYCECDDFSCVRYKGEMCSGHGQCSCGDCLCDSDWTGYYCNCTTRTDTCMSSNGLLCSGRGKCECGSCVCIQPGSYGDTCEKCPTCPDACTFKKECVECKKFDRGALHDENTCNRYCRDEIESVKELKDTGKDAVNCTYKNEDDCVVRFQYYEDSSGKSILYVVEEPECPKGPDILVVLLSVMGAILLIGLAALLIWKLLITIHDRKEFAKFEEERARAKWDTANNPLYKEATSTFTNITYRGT
T1 sequence (P06756 31-889 limits assumed): as the sequence (P06756 31-889 limits assumed) above
T1 sequence (P06756 891-1048 partner limits assumed): as the sequence (P06756 891-1048 partner limits assumed) above
T1 sequence (P05106 27-788): as the sequence (P05106 27-788) above

| IC50 [1] [µM] | IC50 (αVβ3 integrin) [µM] | Compound | also measured |
| --- | --- | --- | --- |
| 13.7 | – | Nc1ccccc1CNC(=O)NCCOc1ccc(C(=O)NC[C@H](NC(=O)OCc2ccccc2)C(=O)O)c(O)c1 [Example 271, (2S)-3-({4-[2-({[(2-aminobenzyl)amino]carbonyl}amino)ethoxy]-2-hydroxybenzoyl}-amino)-2-{[(benzyloxy)carbonyl]amino}propanoic acid] | – |
| 10.6 | – | O=C(NCCOc1ccc(C(=O)NC[C@H](NC(=O)OCc2ccccc2)C(=O)O)c(O)c1)NCc1ccccn1 [Example 272, (2S)-2-{[(benzyloxy)carbonyl]amino}-3-({2-hydroxy-4-[2-({[(pyridin-2-ylmethyl)-amino]carbonyl}amino)ethoxy]benzoyl}amino)propanoic acid] | – |
| – | – | CCOC(=O)[C@H](CNC(=O)c1ccc(OCCNc2ncccn2)cc1O)NS(=O)(=O)c1ccccc1 [Example 273] | TPTX (% inhibition) ([2]; s.c.): 57% |
| – | 18 | O=C(NC[C@H](NS(=O)(=O)c1ccccc1)C(=O)O)c1ccc(OCCNc2ncccn2)cc1O [Example 274] | IC50 (osteoclasts; [3]): 0.9 µM; inhibition in vivo at 100 mg/kg [2]: 54% |
| – | 0.02 | O=C(N[C@@H](CNC(=O)c1ccc(OCCNC2=NCCCN2)cc1O)C(=O)O)OCc1ccccc1 [Example 278, 2(S)-Benzyloxycarbonylamino-3-[2-hydroxy-4-[2-(3,4,5,6-tetrahydro-pyrimidin-2-ylamino)ethoxy]benzoylamino]propionic acid hydrochloride] | IC50 (osteoclasts; [3]): 0.5 µM |
| 0.013 | – | CCOC(=O)CC(NC(=O)c1ccc(OCCNC(=N)N)cc1O)c1ccccc1 (stereo not drawn) [Example 279, 3-[4-(2-Guanidinoethoxy)-2-hydroxy-benzoylamino]-3-phenylpropanoic acid ethyl ester hydrochloride] | inhibition in vivo at 100 mg/kg [2]: 59% |
| 12.3 | 78 | N=C(N)NCCOc1ccc(C(=O)NC(CC(=O)O)c2ccccc2)c(O)c1 (stereo not drawn) [Example 280, 3-[4-Guanidinoethoxy)-2-hydroxy-benzoylamino]-3-phenylpropanoic acid, hydrochloride] | IC50 (μM) Bone Pitting (osteoclasts; Osteoclast Pitting Assay, neonatal rat osteoclasts on bovine cortical bone slices): inactive @ 200 |
| – | – | CCOC(=O)CC(NC(=O)c1ccc(OCCNc2ncccn2)cc1O)c1cccnc1 (stereo not drawn) [Example 281, 3-[2-Hydroxy-4-[2-(pyrimidin-2ylamino)ethoxy]-benzoylamino]-3-pyridine-3-ylpropionic acid ethyl ester] | VnR (IC50μM) [1]: inactive |
| – | 33 | O=C(O)CC(NC(=O)c1ccc(OCCNC2=NCCCN2)cc1O)c1cccnc1 (stereo not drawn) [Example 282, 3-[2-Hydroxy-4-[2-(3,4,5,6-tetrahydropyrimidine-2ylamino)-ethoxy]benzoylamino]-3-pyridin-3-ylpropionic acid] | VnR, % @ 100 ([1]; @ 100): −42% @ 100 |
| 123 | – | CCOC(=O)CC(NC(=O)c1ccc(OCCNC2=NCCCN2)cc1O)c1cccnc1 (stereo not drawn) [Example 283, 3-[2-Hydroxy-4-[2-(3,4,5,6-tetrahydropyrimidin-2-ylamino)ethoxy]benzoylamino]-3-pyridin-3-ylpropionic acid ethyl ester dihydrocloride] | – |
| 5 | 56 | N=C(N)NCCOc1ccc(C(=O)NC(CC(=O)O)c2cccnc2)c(O)c1 (stereo not drawn) [Example 285, 3-[4-(2-Guanidino-ethoxy)-2-hydroxybenzoyl-amino]-3-pyridin-3-yl-propanoic acid] | – |
| 2.8 | 86 | O=C(O)CC(NC(=O)c1ccc(OCCNc2ncccn2)cc1O)c1cccnc1 (stereo not drawn) [Example 286, 3-[2-hydroxy-4-[2-(pyrimidin-2-ylamino)-ethoxy]benzoylamino]-3-pyridin-3-yl-propanoic acid] | – |
| 0.26 | – | O=C(O)CC(NC(=O)c1ccc(OCCNc2ncccn2)cc1O)c1ccccc1 (stereo not drawn) [Example 287, 3-[2-hydroxy-4-[2-(pyrimidin-2-ylamino)-ethoxy]benzoyl-amino]-3-phenyl-propanoic acid hydrochloride] | – |
| 0.003 | – | CCOC(=O)CC(NC(=O)c1ccc(OCCNc2ncccn2)cc1O)c1ccccc1 (stereo not drawn) [Example 288, 3-[2-hydroxy-4-[2-(pyrimidin-2-ylamino)-ethoxy]benzoyl-amino]-3-phenyl-propanoic acid ethyl ester] | IC50 (osteoclasts; Rattus norvegicus, Osteoclast, read-out: bone pitting IC50): 0.44 µM |
| 0.44 | 28 | O=C(O)CC(NC(=O)c1ccc(OCCNC2=NCCCN2)cc1O)c1ccccc1 (stereo not drawn) [Example 291, 3-[2-hydroxy-4-[2-(3,4,5,6-tetrahydropyrimidin-2-ylamino)ethoxy]-benzoylamino]-3-phenyl-propanoic acid] | inhibition in vivo at 100 mg/kg [2]: 41% |
| 0.115 | – | CCOC(=O)CC(NC(=O)c1ccc(OCCNC2=NCCCN2)cc1O)c1ccccc1 (stereo not drawn) [Example 292, 3-[2-hydroxy-4-[2-(3,4,5,6-tetrahydropyrimidin-2-ylamino)ethoxy]-benzoylamino]-3-phenyl-propanoic acid ethyl ester hydrochloride] | inhibition in vivo at 100 mg/kg [2]: 111% |
| 0.0018 | – | NC(CNC(=O)c1ccc(OCCNC2=NCCCN2)cc1O)C(=O)O (stereo not drawn) [Example 295, 2-Amino-3-[2-hydroxy-4-[2-(3,4,5,6-tetra-hydropyrimidin-2-ylamino)ethoxy]-benzoylamino]propionic acid dihydrochloride] | – |
| – | 50 | O=C(N[C@@H](CNC(=O)c1ccc(OCCNc2ncccn2)cc1O)C(=O)O)OCc1ccccc1 [Example 297, 2(S)-Benzyloxycarbonylamino-3-[2-hydroxy-4-[2-(pyrimidin-2-ylamino)ethoxy]-benzoylamino]propionic acid] | IC50 (osteoclasts; [3]): 25 µM |
| – | – | Calcitonin: anti-resorptive used in the clinic; rat calcitonin is the reference compound of the pitting assay (CGNLSTCMLGTYTQDLNKFHTFPQTSIGVGAP; ends and bridges not checked; cysteine pairing not given here; UniProt P01257 85-116, looked up) [reference compound] | osteoclast inhibitory activity (osteoclasts): significant osteoclast inhibitory activity |
| – | – | GRGESP [reference compound] | IC50 (μM) ([1]; reference peptides, 125I-Echistatin 50 pM, 512P5 (αVβ3-overexpressing) cell membranes): inactive at 100 μM |

| Compound | IC50 [1] [µM] | IC50 (αVβ3 integrin) [µM] | also measured |
| --- | --- | --- | --- |
| (2S)-3-({2-hydroxy-4-[2-(pyrimidin-2-ylamino)ethoxy]benzoyl3 amino)-2-{[(4-methoxyanilino)carbonyl]amino}propanoic acid [Example 74] | > 1 | – | – |
| (2S)-3-({2-hydroxy-4-[2-(pyrimidin-2-ylamino)ethoxy]benzoyl}amino)-2-{[1-naphthylamino)carbonyl]amino}propanoic acid [Example 91] | > 1 | – | – |
